Measured values as given in the CheMixHub viscosity set.

Test: xn = mol fraction of the nth substance listed

CC(C)CC1CCCCC1 + CCCCCCCCCCCC
viscosity [mPa·s], 102 kPa
Conditions | x1 = 0.1 | x1 = 0.2011 | x1 = 0.3007 | x1 = 0.4005 | x1 = 0.4977 | x1 = 0.5997 | x1 = 0.6989 | x1 = 0.7996
293.15 K | 1.46 | 1.42 | 1.39 | 1.35 | 1.32 | 1.29 | 1.25 | 1.22
303.15 K | 1.23 | 1.2 | 1.17 | 1.14 | 1.12 | 1.09 | 1.07 | 1.04
313.15 K | 1.05 | 1.02 | 1 | 0.982 | 0.965 | 0.942 | 0.922 | 0.903
323.15 K | 0.902 | 0.889 | 0.874 | 0.856 | 0.842 | 0.824 | 0.809 | 0.793

CC1CCCCC1 + CCCCCCCCCCCC
viscosity [mPa·s], 101 kPa
Conditions | x1 = 0.1004 | x1 = 0.2017 | x1 = 0.2968 | x1 = 0.406 | x1 = 0.5059 | x1 = 0.6011 | x1 = 0.6993 | x1 = 0.7989 | x1 = 0.898
298.15 K | 1.303 | – | – | 1.084 | 1.014 | 0.948 | 0.88 | 0.811 | 0.744
303.15 K | 1.186 | 1.124 | 1.067 | 1.004 | 0.94 | – | 0.821 | 0.756 | 0.694
308.15 K | 1.096 | 1.037 | 0.981 | 0.919 | 0.862 | 0.809 | 0.755 | 0.701 | 0.647

CCCCCCCCCl + CCCCCCCCCCCC
298 K, 101.3 kPa
Conditions | viscosity [mPa·s]
x2 = 0.1064 | 1.143
x2 = 0.2068 | 1.151
x2 = 0.308 | 1.177
x2 = 0.4061 | 1.185
x2 = 0.5066 | 1.218
x2 = 0.6038 | 1.232
x2 = 0.6927 | 1.262
x2 = 0.7984 | 1.288
x2 = 0.8945 | 1.317

CCCCCl + CCCCCCCCCCCC
298 K, 101.3 kPa
Conditions | viscosity [mPa·s]
x2 = 0.1032 | 0.5072
x2 = 0.202 | 0.5794
x2 = 0.2999 | 0.6598
x2 = 0.3986 | 0.7447
x2 = 0.4981 | 0.8232
x2 = 0.6017 | 0.9282
x2 = 0.7015 | 1.034
x2 = 0.7981 | 1.13
x2 = 0.8948 | 1.22

CCOC(=O)c1ccccc1 + CCCCCCCCCCCC
101 kPa
Conditions | viscosity [mPa·s]
298.15 K, x2 = 0.031 | 1.896
298.15 K, x2 = 0.062 | 1.835
298.15 K, x2 = 0.0893 | 1.785
298.15 K, x2 = 0.1261 | 1.726
298.15 K, x2 = 0.168 | 1.663
298.15 K, x2 = 0.2378 | 1.58
298.15 K, x2 = 0.2782 | 1.532
298.15 K, x2 = 0.3577 | 1.462
298.15 K, x2 = 0.4064 | 1.427
298.15 K, x2 = 0.4557 | 1.396
298.15 K, x2 = 0.5044 | 1.371
298.15 K, x2 = 0.5519 | 1.351
298.15 K, x2 = 0.6714 | 1.331
298.15 K, x2 = 0.7194 | 1.324
298.15 K, x2 = 0.7886 | 1.32
298.15 K, x2 = 0.8626 | 1.325
298.15 K, x2 = 0.9296 | 1.335
308.15 K, x2 = 0.0462 | 1.569
308.15 K, x2 = 0.0741 | 1.532
308.15 K, x2 = 0.1171 | 1.477
308.15 K, x2 = 0.1439 | 1.445
308.15 K, x2 = 0.1806 | 1.405
308.15 K, x2 = 0.2481 | 1.342
308.15 K, x2 = 0.2629 | 1.329
308.15 K, x2 = 0.295 | 1.303
308.15 K, x2 = 0.3388 | 1.272
308.15 K, x2 = 0.3769 | 1.249
308.15 K, x2 = 0.4331 | 1.218
308.15 K, x2 = 0.4765 | 1.198
308.15 K, x2 = 0.527 | 1.178
308.15 K, x2 = 0.5759 | 1.163
308.15 K, x2 = 0.6373 | 1.149
308.15 K, x2 = 0.7278 | 1.138
308.15 K, x2 = 0.7527 | 1.136
308.15 K, x2 = 0.8209 | 1.134
308.15 K, x2 = 0.9374 | 1.142
318.15 K, x2 = 0.0278 | 1.314
318.15 K, x2 = 0.0571 | 1.276
318.15 K, x2 = 0.0872 | 1.241
318.15 K, x2 = 0.1222 | 1.203
318.15 K, x2 = 0.155 | 1.173
318.15 K, x2 = 0.1942 | 1.14
318.15 K, x2 = 0.2296 | 1.113
318.15 K, x2 = 0.2726 | 1.084
318.15 K, x2 = 0.3115 | 1.061
318.15 K, x2 = 0.3575 | 1.037
318.15 K, x2 = 0.3995 | 1.019
318.15 K, x2 = 0.4522 | 0.999
318.15 K, x2 = 0.4995 | 0.984
318.15 K, x2 = 0.5564 | 0.97
318.15 K, x2 = 0.6085 | 0.961
318.15 K, x2 = 0.6725 | 0.954
318.15 K, x2 = 0.7324 | 0.95
318.15 K, x2 = 0.7851 | 0.948
318.15 K, x2 = 0.868 | 0.953

CCOC(=O)c1ccccc1 + CCCCCCCCCCCCCC
101 kPa
Conditions | viscosity [mPa·s]
298.15 K, x2 = 0.0376 | 1.927
298.15 K, x2 = 0.0653 | 1.899
298.15 K, x2 = 0.097 | 1.866
298.15 K, x2 = 0.1285 | 1.84
298.15 K, x2 = 0.1619 | 1.815
298.15 K, x2 = 0.1952 | 1.799
298.15 K, x2 = 0.229 | 1.781
298.15 K, x2 = 0.269 | 1.767
298.15 K, x2 = 0.3084 | 1.754
298.15 K, x2 = 0.3521 | 1.745
298.15 K, x2 = 0.3928 | 1.742
298.15 K, x2 = 0.4877 | 1.744
298.15 K, x2 = 0.5485 | 1.755
298.15 K, x2 = 0.5924 | 1.767
298.15 K, x2 = 0.6572 | 1.791
298.15 K, x2 = 0.7238 | 1.827
298.15 K, x2 = 0.7795 | 1.867
298.15 K, x2 = 0.8695 | 1.935
308.15 K, x2 = 0.0358 | 1.606
308.15 K, x2 = 0.0727 | 1.582
308.15 K, x2 = 0.1009 | 1.566
308.15 K, x2 = 0.1305 | 1.552
308.15 K, x2 = 0.1614 | 1.537
308.15 K, x2 = 0.198 | 1.524
308.15 K, x2 = 0.2316 | 1.515
308.15 K, x2 = 0.2666 | 1.506
308.15 K, x2 = 0.3094 | 1.498
308.15 K, x2 = 0.3501 | 1.493
308.15 K, x2 = 0.3905 | 1.49
308.15 K, x2 = 0.4393 | 1.489
308.15 K, x2 = 0.4794 | 1.491
308.15 K, x2 = 0.5373 | 1.498
308.15 K, x2 = 0.5983 | 1.51
308.15 K, x2 = 0.6573 | 1.527
308.15 K, x2 = 0.7193 | 1.552
308.15 K, x2 = 0.8442 | 1.615
308.15 K, x2 = 0.9249 | 1.663
318.15 K, x2 = 0.0231 | 1.332
318.15 K, x2 = 0.0543 | 1.31
318.15 K, x2 = 0.0817 | 1.291
318.15 K, x2 = 0.1144 | 1.274
318.15 K, x2 = 0.1449 | 1.259
318.15 K, x2 = 0.1819 | 1.245
318.15 K, x2 = 0.2156 | 1.233
318.15 K, x2 = 0.2563 | 1.225
318.15 K, x2 = 0.2936 | 1.219
318.15 K, x2 = 0.3396 | 1.213
318.15 K, x2 = 0.3807 | 1.212
318.15 K, x2 = 0.4322 | 1.213
318.15 K, x2 = 0.4784 | 1.216
318.15 K, x2 = 0.5446 | 1.226
318.15 K, x2 = 0.5958 | 1.237
318.15 K, x2 = 0.6468 | 1.251
318.15 K, x2 = 0.6941 | 1.267
318.15 K, x2 = 0.7925 | 1.306
318.15 K, x2 = 0.8579 | 1.336
